Laboratory results taken from the supplement of paper PMC10307832.

Tests used:
Assay in all cases: relative viability (nuclei count vs DMSO), 5 days (fraction); higher = more cells survive
[1] = compound: C1COCCN1C2=CC(=O)C3=C(O2)C(=CC=C3)C4=CC=CC5=C4SC6=CC=CC=C56
Summary of the method: (§1)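 Cells of lung cancer lines were placed in 1536-well plates and kept overnight at 37 °C. Pinning then delivered five library-drug doses (not always all listed), spaced by √10, onto plates anchored with vehicle, and the cells were left 5 days without changing medium. One step fixed, permeabilised and stained them with Hoechst, and MetaXpress counted nuclei in 4× images. Viability, as a median over plates, is treated-well nuclei divided by vehicle-well nuclei, with acceptance only at control CV below 25% and at least one doubling.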

[2] = compound: CCN(CC)CCCCNc1ncc2cc(-c3cc(OC)cc(OC)c3)c(NC(=O)NC(C)(C)C)nc2n1
Summary of the method: as §1

[3] = compound: COCC1(CO)C(=O)C2CCN1CC2 [PRIMA-1MET]
Summary of the method: as §1

[4] = compound: COc1nc(C)cnc1NS(=O)(=O)c1cccnc1-c1ccc(-c2nnco2)cc1 [Zibotentan]
Summary of the method: as §1

[5] = compound: O=c1cc(-c2cccc3c2Sc2ccccc2S3)oc(N2CCOCC2)c1
Summary of the method: as §1

Cell Line	relative viability ([1]; 0.01 µM)	relative viability ([1]; 0.03162 µM)	relative viability ([1]; 0.1 µM)	relative viability ([1]; 0.3162 µM)	relative viability ([1]; 1 µM)	relative viability ([2]; 0.01 µM)	relative viability ([2]; 0.03162 µM)	relative viability ([2]; 0.1 µM)	relative viability ([2]; 0.3162 µM)	relative viability ([2]; 1 µM)	relative viability ([3]; 0.2 µM)	relative viability ([3]; 0.6325 µM)	relative viability ([3]; 2 µM)	relative viability ([3]; 6.325 µM)	relative viability ([3]; 20 µM)	relative viability ([4]; 0.08 µM)	relative viability ([4]; 0.253 µM)	relative viability ([4]; 0.8 µM)	relative viability ([4]; 2.53 µM)	relative viability ([5]; 0.08 µM)	relative viability ([5]; 0.253 µM)	relative viability ([5]; 0.8 µM)	relative viability ([5]; 2.53 µM)	relative viability ([5]; 8 µM)
NCI-H838	1.04	0.966	0.98	0.99	0.893	0.99	0.971	1.01	0.97	0.643	1.05	0.946	0.841	1.08	0.659	0.962	0.87	0.987	0.998	0.979	1.09	0.862	0.947	0.887
NCI-H1299	1.01	0.987	1.02	0.994	1.01	1.03	1.06	1.09	1.06	1.02	1.08	1.03	1.03	1.02	0.977	1.02	1.02	0.998	1.02	1.02	1.02	1.04	1.02	1.01
NCI-H1355	0.991	1.04	0.74	1.03	0.928	1.08	0.938	1.04	1.11	0.939	0.955	0.908	0.894	0.973	0.927	1	0.984	0.955	1	0.955	1.13	0.837	0.904	0.953
NCI-H1395	0.944	0.987	0.888	1.15	0.822	0.731	0.894	0.979	0.869	0.652	0.925	0.676	0.866	0.964	0.551	1.02	0.819	0.901	1.16	0.816	0.863	1.02	0.81	1.23
NCI-H1437	0.955	0.98	1.02	1.05	0.959	1.08	0.979	1.08	1.11	0.945	1.03	0.859	0.971	1	0.96	1.02	0.882	0.964	0.995	1.01	1.16	1.11	0.918	1.18
NCI-H1563	0.972	1.01	0.944	0.975	0.977	1.03	0.95	1.04	0.928	0.729	1.05	0.968	0.806	1.06	0.457	1.04	0.716	1	1.09	0.973	0.988	0.933	0.989	0.986
NCI-H1623	0.939	0.932	0.888	0.931	0.888	0.951	0.888	0.913	0.993	0.933	1.07	0.943	0.926	0.997	0.598	0.936	0.744	1.05	0.85	1.03	0.981	0.957	0.944	1.07
NCI-H1648	0.861	1.03	1.14	0.932	0.959	1.02	1.16	0.927	0.656	0.544	0.852	0.715	1.07	0.722	0.75	1.04	0.786	0.84	0.932	0.742	1.16	0.792	0.591	0.921
NCI-H1650	0.788	0.893	0.998	0.957	0.788	0.981	0.983	1.08	0.981	0.706	1.1	0.858	0.793	0.912	0.489	0.937	–	0.994	0.968	0.851	1.07	0.844	0.888	0.868
NCI-H1651	0.983	0.976	0.975	0.998	0.944	1.04	0.988	1.05	1.06	0.979	1.08	0.901	0.907	1.04	0.946	1.03	0.912	0.937	1.03	0.974	1.13	0.983	0.941	1.07
NCI-H1666	0.996	0.959	1.01	1.02	0.953	0.942	0.993	1	1.17	0.973	0.993	0.868	0.962	0.938	0.942	1.02	0.879	1.03	1.06	0.94	1.09	1.02	0.911	1
NCI-H1703	1.19	0.926	0.964	0.958	0.861	0.832	0.854	1.19	1.04	0.723	1.19	0.852	0.815	0.797	0.0528	0.972	0.94	1.25	0.505	0.718	1.01	1.03	0.925	0.843
NCI-H1734	0.977	1.01	0.883	0.997	0.964	0.949	1.1	1.09	1.03	0.85	1.03	0.75	0.734	0.945	0.0584	1.04	0.884	1.02	1	0.98	1.13	1.1	–	1.13
NCI-H1755	1.03	1.01	0.986	0.994	0.985	1.04	1.05	1.08	1.1	1.01	1.04	0.928	0.85	1.07	0.999	0.972	0.987	0.926	0.977	0.96	1.03	1.05	1.06	1.05
